Source: PubChem BioAssay (NCI)
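Cells were grown in 96-well plates and exposed to each compound for 48 hours at five concentrations; endpoints were interpolated linearly between bracketing concentrations, or set to the highest concentration if not reached. At the TGI there is no net growth.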

Legend:
Test in all cases: NCI tumour cell line growth inhibition, 48 h
[1] = system: 786-0 renal
[2] = system: A498 renal
[3] = system: A549 NSCLC
[4] = system: ACHN renal
[5] = system: BT-549 breast
[6] = system: CAKI-1 renal
[7] = system: CCRF-CEM leukemia
[8] = system: COLO 205 colon
[9] = system: EKVX NSCLC
[10] = system: HCC-2998 colon
[11] = system: HCT-116 colon
[12] = system: HCT-15 colon
[13] = system: HL-60(TB) leukemia
[14] = system: HOP-62 NSCLC
[15] = system: HOP-92 NSCLC
[16] = system: HS 578T breast
[17] = system: HT29 colon
[18] = system: IGROV1 ovarian
[19] = system: K-562 leukemia
[20] = system: KM12 colon
[21] = system: LOX IMVI melanoma
[22] = system: M14 melanoma
[23] = system: MALME-3M melanoma
[24] = system: MCF7 breast
[25] = system: MDA-MB-231 breast
[26] = system: MDA-MB-435
[27] = system: MDA-N
[28] = system: MOLT-4 leukemia
[29] = system: NCI-H226 lung
[30] = system: NCI-H23 lung
[31] = system: NCI-H460 lung
[32] = system: NCI-H522 lung
[33] = system: NCI/ADR-RES ovarian
[34] = system: OVCAR-4 ovarian
[35] = system: OVCAR-5 ovarian
[36] = system: OVCAR-8 ovarian
[37] = system: PC-3 prostate
[38] = system: RPMI-8226 leukemia
[39] = system: RXF 393 renal
[40] = system: SF-268 CNS
[41] = system: SF-295 CNS
[42] = system: SF-539 CNS
[43] = system: SK-MEL-2 melanoma
[44] = system: SK-MEL-5 melanoma
[45] = system: SK-OV-3 ovarian
[46] = system: SN12C renal
[47] = system: SNB-19 CNS
[48] = system: SW-620 colon
[49] = system: T-47D breast
[50] = system: TK-10 renal
[51] = system: U251 CNS
[52] = system: UACC-257 melanoma
[53] = system: OVCAR-3 ovarian
[54] = system: SK-MEL-28 melanoma
[55] = system: SNB-75 CNS
[56] = system: UACC-62 melanoma
[57] = system: UO-31 renal

With `O=C1Cc2c([nH]c3ccc([N+](=O)[O-])cc23)-c2ccccc2N1` the TGI [1] was greater than 100 µM, the TGI [2] was greater than 19.7 µM and the TGI [3] was greater than 56.8 µM. It also gave a TGI [4] greater than 18.2 µM, a TGI [5] greater than 100 µM and a TGI [6] greater than 95.7 µM. For the same molecule, the TGI [7] was 0.325 µM, the TGI [8] was 1.16 µM and the TGI [9] was 2.38 µM. For the same molecule, the TGI [10] was greater than 49.1 µM, the TGI [11] was 1.96 µM and the TGI [12] was greater than 100 µM. The TGI [13] was 0.752 µM, the TGI [14] was 18.8 µM and the TGI [15] was greater than 100 µM. It also gave a TGI [16] greater than 21.2 µM, a TGI [17] of 4.46 µM and a TGI [18] greater than 100 µM. It also gave a TGI [19] of 9.23 µM, a TGI [20] greater than 55.1 µM and a TGI [21] greater than 100 µM. It also gave a TGI [22] greater than 30 µM, a TGI [23] greater than 100 µM and a TGI [24] greater than 100 µM. It also gave a TGI [25] greater than 100 µM, a TGI [26] greater than 100 µM and a TGI [27] of 8.44 µM. It also gave a TGI [28] of 1.44 µM, a TGI [29] of 18.2 µM and a TGI [30] of 6.37 µM. For the same molecule, the TGI [31] was greater than 63 µM, the TGI [32] was greater than 26.2 µM and the TGI [33] was greater than 84 µM. For the same molecule, the TGI [34] was 6.11 µM, the TGI [35] was 0.77 µM and the TGI [36] was greater than 100 µM. For the same molecule, the TGI [37] was greater than 100 µM, the TGI [38] was 2.98 µM and the TGI [39] was 14.6 µM. It also gave a TGI [40] greater than 94.6 µM, a TGI [41] greater than 100 µM and a TGI [42] of 16.8 µM. The TGI [43] was 5.62 µM, the TGI [44] was 2.02 µM and the TGI [45] was greater than 100 µM. The TGI [46] was 19.1 µM, the TGI [47] was greater than 32.7 µM and the TGI [48] was greater than 58.5 µM. For the same molecule, the TGI [49] was greater than 100 µM, the TGI [50] was greater than 37.9 µM and the TGI [51] was greater than 83.1 µM. For the same molecule, the TGI [52] was greater than 62.8 µM.

`CCOc1ccc(NC(=O)C(=O)C2C(=O)Nc3ccccc3S2=O)cc1` (centres undefined) gave a TGI [1] greater than 100 µM, a TGI [2] greater than 100 µM and a TGI [3] greater than 100 µM. The TGI [4] was greater than 100 µM, the TGI [5] was greater than 100 µM and the TGI [6] was greater than 100 µM. For the same molecule, the TGI [7] was greater than 100 µM, the TGI [9] was greater than 100 µM and the TGI [11] was greater than 100 µM. The TGI [12] was greater than 100 µM, the TGI [13] was greater than 100 µM and the TGI [14] was greater than 100 µM. For the same molecule, the TGI [15] was greater than 100 µM, the TGI [16] was greater than 100 µM and the TGI [17] was greater than 100 µM. For the same molecule, the TGI [18] was greater than 100 µM, the TGI [20] was greater than 100 µM and the TGI [21] was greater than 100 µM. For the same molecule, the TGI [22] was greater than 100 µM, the TGI [23] was greater than 100 µM and the TGI [24] was greater than 100 µM. For the same molecule, the TGI [25] was greater than 100 µM, the TGI [26] was greater than 100 µM and the TGI [27] was greater than 100 µM. The TGI [29] was greater than 100 µM, the TGI [30] was greater than 100 µM and the TGI [31] was greater than 100 µM. The TGI [32] was greater than 100 µM, the TGI [33] was greater than 100 µM and the TGI [53] was greater than 100 µM. For the same molecule, the TGI [34] was greater than 100 µM, the TGI [35] was greater than 100 µM and the TGI [36] was greater than 100 µM. It also gave a TGI [37] greater than 100 µM, a TGI [38] greater than 100 µM and a TGI [39] greater than 100 µM. The TGI [40] was greater than 100 µM, the TGI [41] was greater than 100 µM and the TGI [42] was greater than 100 µM. For the same molecule, the TGI [43] was greater than 100 µM, the TGI [54] was greater than 100 µM and the TGI [44] was greater than 100 µM. It also gave a TGI [45] greater than 100 µM, a TGI [46] greater than 100 µM and a TGI [55] greater than 100 µM. The TGI [48] was greater than 100 µM, the TGI [49] was greater than 100 µM and the TGI [50] was greater than 100 µM. For the same molecule, the TGI [51] was greater than 100 µM, the TGI [52] was greater than 100 µM and the TGI [56] was greater than 100 µM. The TGI [57] was greater than 100 µM.
